This is an account of results in PubChem BioAssay (NCI).

Where “and” joins values, the source holds several entries; their conditions need not be identical. Identical values can stand only once.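 Five concentrations, 48 hours, 96-well plates. GI50: concentration for 50% inhibition of growth. TGI: total growth inhibition.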 Bounds are passed on as bounds.

What all share (experiment): NCI anticancer screen, dose series, 48 h
In experiment [1] the test system is 786-0 renal.
Experiment [2] relates to M14 melanoma.
Experiment [3] has as its system NCI-H226 lung.
The test system of experiment [4] is NCI-H23 lung.
The test system of experiment [5] is RPMI-8226 leukemia.
For experiment [6], the system named is SF-295 CNS.
Experiment [7] concerns SF-539 CNS.
Experiment [8] has as its system SK-OV-3 ovarian.
For experiment [9], the system named is UO-31 renal.
Experiment [10] has as its system PC-3 prostate.

`O=C(NCC(=O)N1CCOC1=O)OCc1ccccc1`: the TGI in experiment [1], in experiment [2], in experiment [3], in experiment [4], in experiment [5] and in experiment [6] was over 100 µM in each case. Also, the TGI in experiment [7], in [8] and in [9] was over 100 µM each time.
With `COc1cccc2c1[C@H]1CO[C@H]3C4C[C@H](C(=O)O)C([C@@H](C2)N13)N4C` (some centres undefined), the TGI was 4.67 µM in experiment [1]; 6.35 µM in experiment [2]; 5.59 µM in experiment [3]; 5.47 µM and 1.63 µM in experiment [4]; over 41.8 µM in experiment [6]; 2.62 µM and 2.04 µM in [7]. Moreover, the TGI in experiment [8] is 7.84 µM and 1.75 µM; in experiment [9], 7.72 µM. Besides, the GI50 was 0.564 µM in experiment [4]; 0.684 µM in experiment [7]; 6.06 µM and 0.803 µM in [8].
For `COCCOCOC(C)(C)[C@H](CCOC(C)=O)O[Si](c1ccccc1)(c1ccccc1)C(C)(C)C`, the TGI in experiment [1] amounted to 58.9 µM; in experiment [2], 49.4 µM; in [3] it was 19.8 µM; in experiment [4] it was 80 µM; in experiment [5] it was 15.1 µM; in experiment [6] it was 55.5 µM. For the same compound, the TGI is over 100 µM in experiment [8] and 36.9 µM in [9].
On to `O=C(O)[C@@H](NS(=O)(=O)c1ccc2ccccc2c1)c1ccccc1`, for which the TGI in [1], in [2], in experiment [4], in experiment [5], in experiment [7] and in experiment [8] was over 100 µM each time. In experiment [9], this compound displayed a TGI of over 100 µM.
In the case of `Cc1ccc(NC(=O)CC2SC(N)=NC2=O)cc1C` (centres undefined), the TGI in [1], in [2], in experiment [3], in experiment [4], in experiment [5] and in experiment [6] was over 100 µM in each case. Further, the TGI in [7], in [8] and in experiment [9] was over 100 µM in each case.
Turning to `Cc1ccc(Sc2oc(-c3ccc(C)cc3)nc2[P+](c2ccccc2)(c2ccccc2)c2ccccc2)cc1`, the GI50 in [1] was 0.379 µM; in experiment [2], 0.403 µM; in experiment [4] it was 0.298 µM; in experiment [10], 0.305 µM; in experiment [5], 0.308 µM; in experiment [6] it was 0.291 µM. The GI50 in [7] is 0.404 µM; in experiment [8] it was 0.27 µM; in experiment [9], 0.24 µM. Also, the TGI in experiment [1] turned out to be 1.65 µM; in experiment [2], 1.57 µM; in experiment [4], 1.02 µM; in [10], 1.34 µM; in experiment [5], 1.35 µM; in experiment [6] it was 1.02 µM. Moreover, the TGI in [7] turned out to be 1.53 µM; in [8], 1.1 µM; in experiment [9], 0.935 µM.
`CC(=O)NNc1nc(C)c(C(=O)/C=C/c2ccc(/C=C/C(=O)c3sc(NNC(C)=O)nc3C)cc2)s1`: the TGI in experiment [1], in experiment [2], in experiment [3], in experiment [4], in experiment [6] and in experiment [7] was over 100 µM in each case. For the same compound, the TGI in experiment [8] and in experiment [9] was over 100 µM in each case.
For `CN1CCc2c1nc(-c1cccnc1)c1c2N(C)CC1`, the TGI in experiment [1], in experiment [2], in [4], in experiment [5], in [6] and in [7] was over 100 µM each time. Further, the TGI in [8] and in experiment [9] was over 100 µM throughout.
On to `O=C(N/C(=C\c1cc(Cl)ccc1Cl)c1nc2ccc(Cl)cc2[nH]1)c1ccccc1`, for which the TGI in experiment [1] was determined as 71.9 µM; in experiment [2], 31.1 µM; in [3] it was 42.4 µM; in experiment [4], 28.7 µM; in experiment [5] it was 40.4 µM; in experiment [6], 31.3 µM. The TGI in experiment [7] is 35.1 µM; in [8], 51.8 µM; in experiment [9], 24.4 µM.
Turning to `NC(=O)C12CC3CC(CC(Br)(C3)C1)C2`, the TGI in experiment [1], in experiment [2], in [4], in experiment [5], in [6] and in [7] was over 100 µM each time. The TGI in experiment [8] and in experiment [9] was over 100 µM throughout.
Take `Nc1cc2cccc[n+]2c2cccc(Cl)c12`: the GI50 in experiment [1] was 22.1 µM; in [2] it was 36.4 µM; in [3], 18 µM; in experiment [4], 14.3 µM; in experiment [5] it was 21.3 µM; in experiment [6] it was 33.4 µM. Also, the GI50 in [7] was 23 µM; in [9] it was 61.4 µM. Besides, the TGI in [3] came out at 86 µM; in experiment [4], 65.6 µM; in experiment [7], 71.2 µM.
`COC(=O)C#CCC1CCCC1C1SCCS1` (centres undefined): the TGI in experiment [1], in experiment [2], in experiment [3], in experiment [4], in experiment [6] and in [7] was over 100 µM throughout. Further, the TGI in experiment [8] and in experiment [9] was over 100 µM each time.
`Cc1c2ccncc2c(C)c2c1c1cc(CO)ccc1n2C`: the GI50 in experiment [1] is 0.596 µM; in experiment [2] it was 0.687 µM; in experiment [4], 0.429 µM; in [10] it was 0.294 µM; in [5], 0.425 µM; in [6], 0.383 µM. The GI50 in experiment [7] is 0.73 µM; in experiment [8], 0.784 µM; in experiment [9], 0.304 µM. Besides, the TGI was 5.07 µM in experiment [1]; 3.27 µM in experiment [2]; 2.66 µM in experiment [4]; 1.39 µM in [10]; 2.28 µM in [5]; 2.5 µM in experiment [6]. For the same compound, the results for the TGI in experiment [7], in experiment [8] and in [9] were 4.2 µM, 3.71 µM and 3.96 µM, respectively.
With `CCN(CC)CCCC(C)Nc1c(Sc2cnc3cc(Cl)ccc3c2NC(C)CCCN(CC)CC)cnc2cc(Cl)ccc12` (centres undefined), the TGI in experiment [1] turned out to be 3.01 µM; in experiment [2], 3.29 µM; in experiment [3], 3.52 µM; in experiment [4], 9.25 µM; in [5], 4.55 µM; in experiment [8] it was 3.08 µM. In addition, the TGI in experiment [9] was 35.5 µM.
Consider `COc1cc(/C=C\c2ccncc2)cc(OC)c1OC`, for which the TGI in experiment [1], in [2], in experiment [3], in [5], in experiment [6] and in [7] was over 100 µM in each case. The same compound gave a TGI in experiment [9] of over 100 µM.
In the case of `CCCCCCCCCCCCCP(=O)(NCC(N)=O)OCC` (centres undefined), the TGI in experiment [1] came out at 29 µM; in experiment [2], 30.6 µM; in experiment [3], 33.5 µM; in experiment [4], 44 µM; in experiment [6] it was 31.2 µM; in experiment [7], 31.3 µM. For the same compound, the TGI was found to be 41.8 µM in experiment [8] and 27.1 µM in experiment [9].
For `COC/N=C(/N)NC#N`, the TGI in experiment [1], in [2], in experiment [3], in experiment [4], in [5] and in [6] was over 100 µM throughout. Besides, the TGI in [7], in experiment [8] and in experiment [9] was over 100 µM in each case.
With `C#C[C@H]1CCCCCC1O` (some centres undefined), the TGI in [1], in experiment [2], in [3], in experiment [4], in [6] and in [7] was over 100 µM each time. For the same compound, the TGI in [8] and in experiment [9] was over 100 µM in each case.
For the compound `COc1ccc(-c2onc(-c3c(C)cc(C)cc3C)c2C2=NCCN2)cc1`, the TGI in experiment [1] is over 100 µM; in experiment [2], 35.8 µM; in experiment [3], 89.8 µM; in experiment [4], over 100 µM; in experiment [5], over 100 µM; in experiment [6], 35.3 µM. Besides, the figures for the TGI in experiment [7], in [8] and in experiment [9] were 44.1 µM, over 100 µM and over 100 µM, respectively.
On to `O=C(CCc1nc(=S)[nH][nH]1)Nc1cccc(C(F)(F)F)c1`, for which the TGI in [1], in [2], in experiment [3], in experiment [4], in [5] and in experiment [6] was over 100 µM each time. The TGI in experiment [7], in experiment [8] and in [9] was over 100 µM throughout.
Take `N.N.N.N.N.O=S(=O)([O-])C(F)(F)F.O=S(=O)([O-])C(F)(F)F.[Os+8]`: the GI50 was 4.2 µM in experiment [1]; 14.2 µM in [2]; 2.59 µM in experiment [3]; 5.07 µM in [4]; 8.7 µM in [5]; 8.07 µM in experiment [6]. The GI50 was 4.26 µM in experiment [7], 20.6 µM in experiment [8] and 12.8 µM in experiment [9]. Moreover, the TGI in [1] is 16.4 µM; in [2], 28.7 µM; in [3], 8.69 µM; in experiment [4] it was 19.1 µM; in experiment [5], over 100 µM; in experiment [6], 62.8 µM. Moreover, the TGI in experiment [7] was determined as 16.2 µM; in [8] it was 60.2 µM; in experiment [9], 30.7 µM.
Take `COC(=O)/C(C#N)=C1\CCc2ccccc21`: the TGI in experiment [1], in experiment [2], in experiment [3], in [4], in experiment [5] and in experiment [6] was over 100 µM each time. Besides, the TGI in [7], in [8] and in experiment [9] was over 100 µM in each case.
For `Nc1ccc(C(=O)N/C(=C\c2cccc([N+](=O)[O-])c2)c2nc3ccc(Cl)cc3[nH]2)cc1`, the TGI in [1], in experiment [2], in [4], in experiment [6], in [7] and in [8] was over 100 µM each time. The TGI in [9] was over 100 µM.
In the case of `COc1ccc(Cc2nc3ccccc3s2)cc1OC`, the TGI in [1] is 31.9 µM; in [2], 31.6 µM; in experiment [3] it was 45.7 µM; in experiment [4], 40.4 µM; in experiment [5], 70.9 µM; in experiment [6], 28.9 µM. The results for the TGI in experiment [7], in experiment [8] and in experiment [9] were 31.2 µM, 43.5 µM and 30 µM, respectively.
For `O=C(O)COc1ccc(C(=O)/C(SS/C(C(=O)c2ccc(OCC(=O)O)c(Cl)c2Cl)=C2\C=C(c3ccc(Br)cc3)SS2)=C2/C=C(c3ccc(Br)cc3)SS2)c(Cl)c1Cl`, the TGI was over 45.3 µM in experiment [1]; over 91.6 µM in experiment [2]; 42.1 µM in experiment [3]; 21.3 µM in experiment [4]; 18.2 µM in experiment [5]; 43.3 µM in experiment [6]. Besides, the TGI in experiment [7] is 26.2 µM; in experiment [8] it was over 89.5 µM; in experiment [9], 20.2 µM.
For `CC(=O)[CH-]C(=O)Nc1ccccc1.CC(=O)[CH-]C(=O)Nc1ccccc1.CC[O-].CC[O-].[Ti+4]`, the GI50 in [1], in experiment [2], in experiment [3], in experiment [4], in experiment [6] and in experiment [7] was over 100 µM each time. The GI50 in [8] and in experiment [9] was over 100 µM throughout. Besides, the TGI in [1], in experiment [2], in experiment [3], in [4], in [6] and in experiment [7] was over 100 µM in each case. The TGI in [8] and in experiment [9] was over 100 µM in each case.
For `Cc1cc(C)nc(NS(=O)(=O)c2ccc(NC(=O)c3cccn4c(=O)c5ccccc5nc34)cc2)n1`, the TGI was over 100 µM in experiment [1]; over 100 µM in [2]; 97.3 µM in [3]; over 100 µM in experiment [4]; over 100 µM in [6]; over 100 µM in [7]. Besides, the TGI in [9] is 74.7 µM.
